Assay results reported in ChEMBL document CHEMBL5512601, “Small-molecule inhibitors targeting apoptosis signal-regulated kinase 1” (Eur J Med Chem, 2023).

Key:
[1] = biological target: T1, Mitogen-activated protein kinase kinase kinase 5 (Homo sapiens, UniProt Q99683); assay: Inhibition of ASK1 phosphorylation in HEK293T cells incubated for 1 hr; format: cell-based
T1 sequence (Q99683 whole entry): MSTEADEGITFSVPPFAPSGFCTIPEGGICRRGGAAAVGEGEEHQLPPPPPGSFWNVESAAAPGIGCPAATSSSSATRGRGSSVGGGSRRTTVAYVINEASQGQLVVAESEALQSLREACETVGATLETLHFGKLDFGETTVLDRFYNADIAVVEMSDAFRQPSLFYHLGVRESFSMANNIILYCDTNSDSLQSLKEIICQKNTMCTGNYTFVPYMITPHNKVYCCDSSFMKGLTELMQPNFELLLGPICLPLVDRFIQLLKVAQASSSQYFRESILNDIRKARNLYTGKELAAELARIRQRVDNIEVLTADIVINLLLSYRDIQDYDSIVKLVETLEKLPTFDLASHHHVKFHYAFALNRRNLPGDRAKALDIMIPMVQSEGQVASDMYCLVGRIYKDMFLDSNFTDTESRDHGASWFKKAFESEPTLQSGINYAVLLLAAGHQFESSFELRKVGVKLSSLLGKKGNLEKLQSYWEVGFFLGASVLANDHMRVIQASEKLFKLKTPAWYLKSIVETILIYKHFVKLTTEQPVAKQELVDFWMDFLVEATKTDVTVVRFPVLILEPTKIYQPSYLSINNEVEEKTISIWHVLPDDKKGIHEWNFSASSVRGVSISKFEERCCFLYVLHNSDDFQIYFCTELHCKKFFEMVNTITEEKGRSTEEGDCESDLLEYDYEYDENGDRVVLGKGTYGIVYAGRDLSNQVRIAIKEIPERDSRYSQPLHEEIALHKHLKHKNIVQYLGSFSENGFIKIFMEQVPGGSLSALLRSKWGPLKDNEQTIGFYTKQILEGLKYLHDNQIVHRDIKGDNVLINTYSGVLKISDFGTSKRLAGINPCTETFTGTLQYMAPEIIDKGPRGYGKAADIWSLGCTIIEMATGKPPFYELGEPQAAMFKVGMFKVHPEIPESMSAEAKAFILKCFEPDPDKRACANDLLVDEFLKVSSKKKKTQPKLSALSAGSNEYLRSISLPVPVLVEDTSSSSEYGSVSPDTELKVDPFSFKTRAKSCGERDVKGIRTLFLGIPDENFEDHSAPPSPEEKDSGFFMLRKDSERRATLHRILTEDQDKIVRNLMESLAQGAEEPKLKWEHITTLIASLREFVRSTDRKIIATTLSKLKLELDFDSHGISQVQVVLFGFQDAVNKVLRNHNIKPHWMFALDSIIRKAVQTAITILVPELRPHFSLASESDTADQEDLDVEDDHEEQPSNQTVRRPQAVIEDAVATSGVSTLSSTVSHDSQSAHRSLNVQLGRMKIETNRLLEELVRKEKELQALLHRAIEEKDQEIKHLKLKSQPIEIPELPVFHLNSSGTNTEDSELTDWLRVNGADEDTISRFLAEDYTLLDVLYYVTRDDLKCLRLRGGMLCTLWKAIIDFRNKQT

[2] = Unbound brain-to-plasma concentration ratio in rat at 1 mg/kg, iv by LC-MS/MS analysis; format: ADME, organism-based; settings: brain and plasma, read-out: K(p,uu,brain)
[3] = biological target: T1, Mitogen-activated protein kinase kinase kinase 5; assay: Inhibition of ASK1 (unknown origin) incubated for 2 hrs
[4] = biological target: T1, Mitogen-activated protein kinase kinase kinase 5; assay: Inhibition of N-terminal his-tagged human ASK1 (649 to 946 residues) expressed in Escherichia coli using [gamma-32p]ATP as substrate by liquid scintillation counting analysis
[5] = biological target: T1, Mitogen-activated protein kinase kinase kinase 5; assay: Inhibition of human ASK1 using STK-substrate biotin as substrate by TR-FRET assay
[6] = biological target: T1, Mitogen-activated protein kinase kinase kinase 5; assay: Inhibition of human recombinant ASK1 by HTRF assay
[7] = biological target: T1, Mitogen-activated protein kinase kinase kinase 5; assay: Inhibition of ASK1 (unknown origin) incubated for 0.5 to 5 hrs by TR-FRET assay
[8] = biological target: T1, Mitogen-activated protein kinase kinase kinase 5; assay: Inhibition of ASK1 (unknown origin)
[9] = Oral bioavailability in Sprague-Dawley rat at 1 mg/kg by LC-MS/MS analysis; format: ADME, organism-based; settings: in vivo
[10] = Half life in Sprague-Dawley rat at 1 mg/kg, iv by LC-MS/MS analysis; format: ADME, organism-based; settings: in vivo
[11] = biological target: T1, Mitogen-activated protein kinase kinase kinase 5; assay: Inhibition of ASK1 in HEK293 cells; format: cell-based
[12] = Apparent permeability of compound across apical to basolateral side in human Caco2 cells; format: ADME, cell-based; settings: Caco-2
[13] = biological target: T1, Mitogen-activated protein kinase kinase kinase 5; assay: Inhibition of ASK1 (unknown origin) preincubated with compound for 30 mins followed by ATP addition and measured after 120 mins by HTRF analysis
[14] = biological target: T1, Mitogen-activated protein kinase kinase kinase 5; assay: Inhibition of full length GST-tagged recombinant human ASK1 using MBP as substrate incubated for 20 mins by cell based assay
[15] = biological target: 3-phosphoinositide-dependent protein kinase 1 (Homo sapiens) (UniProt O15530); assay: Inhibition of PDK1 (unknown origin) at 10 uM relative to control
Chain of 3-phosphoinositide-dependent protein kinase 1 (Homo sapiens) (O15530 whole entry, looked up): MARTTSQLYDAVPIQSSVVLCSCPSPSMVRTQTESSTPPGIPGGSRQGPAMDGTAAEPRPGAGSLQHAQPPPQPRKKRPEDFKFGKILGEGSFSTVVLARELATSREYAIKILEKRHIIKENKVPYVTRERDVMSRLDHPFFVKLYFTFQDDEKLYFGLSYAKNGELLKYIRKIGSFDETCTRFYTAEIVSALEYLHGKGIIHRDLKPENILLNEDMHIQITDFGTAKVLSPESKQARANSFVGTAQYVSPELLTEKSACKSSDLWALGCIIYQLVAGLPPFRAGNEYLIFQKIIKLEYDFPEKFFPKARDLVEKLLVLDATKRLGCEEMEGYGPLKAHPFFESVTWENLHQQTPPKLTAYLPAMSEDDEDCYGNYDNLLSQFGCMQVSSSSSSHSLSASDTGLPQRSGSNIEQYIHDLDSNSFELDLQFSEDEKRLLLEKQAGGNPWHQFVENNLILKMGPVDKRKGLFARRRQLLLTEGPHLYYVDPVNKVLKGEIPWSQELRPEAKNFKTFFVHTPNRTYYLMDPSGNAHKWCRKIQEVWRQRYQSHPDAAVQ

[16] = biological target: T1, Mitogen-activated protein kinase kinase kinase 5; assay: Inhibition of human ASK1
[17] = Toxicity in C57BL/6J mouse harboring SOD1 mutant assessed as animal survival (reference value: 1.06%); settings: in vivo, read-out: Activity

## C[C@H]1CCCOc2ncc(-c3ccncc3)cc2C(=O)Nc2cccc(n2)-c2nncn21
[1]
  IC50: ≤ 100 nM
[2]
  Kp uu: ≥ 0.1
[3]
  IC50: ≤ 100 nM

## C=C(C)[C@@H]1CC[C@]2(C(=O)O)CC[C@]3(C)[C@H](C[C@H]4OC(=O)C[C@@H](O)[C@]5(C)[C@@H]4[C@@]3(C)CC[C@H]5C(=C)C)[C@@H]12
[4]
  IC50: 370 nM

## CC(C)n1cnnc1-c1cccc(NC(=S)Nc2ccccn2)n1
[5]
  EC50: ≤ 500 nM
[6]
  IC50: 50 nM

## CC(C)n1nnnc1-c1cccc(N2C(=O)c3cc(-n4cnc(C5CC5)c4)ccc3C2(C)C)n1
[7]
  IC50: 3.9 nM
[8]
  IC50: 5.09 nM

## CC(C)n1cnnc1-c1cccc(NC(=O)c2cccc(-n3cnc(C4CC4)c3)c2)n1
[9]
  bioavailability: 11%
[10]
  half-life: 35.4 min
[11]
  EC50: 3.4 nM
[12]
  Papp A→B: 3.1 ×10⁻⁶ cm/s

## Cc1cc(F)c(C(=O)Nc2cccc(-c3nnc4sccn34)n2)cc1-n1cnc(C2CC2)c1
[7]
  IC50: 4.1 nM

## CC(C)n1cnnc1-c1cccc(-c2cn(C)c3ccc(-n4cnc(C5CC5)c4)cc3c2=O)n1
[13]
  IC50: 1.37 nM

## Cc1cc(F)c(C(=O)Nc2cccc(-c3nnc4n3CCCC4)n2)cc1-n1cnc(C2CC2)c1
[7]
  IC50: 18 nM
[14]
  IC50: ≤ 100 nM

## Cc1ccc(-n2ccn(-c3cccc(-c4nncn4C(C)C)n3)c2=O)c(F)c1
[5]
  EC50: ≤ 500 nM
[6]
  IC50: 50 nM

## Cc1cc2c(cc1-n1cnc(C3CC3)c1)C(=O)N(c1cccc(-c3nncn3C(C)C)n1)CC2
[8]
  IC50: 2.2 nM

## Cc1ccc(NC(=O)Nc2cccc(-c3nncn3C(C)C)n2)c(F)c1
[5]
  EC50: ≤ 500 nM

## CC(C)n1cnnc1-c1cccc(NC(=O)c2cc(-n3cnc(C4CC4)c3)ccn2)c1
[15]
  inhibition: 0.04%

## Cc1cc(F)c(C(=O)Nc2cccc(-c3nnc4n3CCOC4)n2)cc1-n1cnc(C2CC2)c1
[7]
  IC50: 6.1 nM

## CC(C)n1cnnc1-c1cccc(-n2ncc3ccc(-n4cnc(C5CC5)c4)cc3c2=O)n1
[13]
  IC50: 0.9 nM

## Cc1cc(F)c(C(=O)Nc2cccc(-c3nnc4ncncn34)n2)cc1-n1cnc(C2CC2)c1
[7]
  IC50: 14 nM

## CC(C)n1cnnc1-c1cccc(NC(=O)c2cc3c(cc2F)CNCc2nc(C4CC4)cn2-3)n1
[8]
  IC50: < 10 nM

## Cc1ccc(-c2cnc(-c3cccc(-c4nncn4C(C)C)n3)s2)c(F)c1
[6]
  IC50: 50 nM

## Cc1cc(F)c(C(=O)Nc2cccc(-c3nnc4n3CCS(=O)(=O)C4)n2)cc1-n1cnc(C2CC2)c1
[7]
  IC50: 10 nM

## Cn1nc(C(F)(F)F)c2cc(C(=O)Nc3cccc(-c4nncn4C4CC4)n3)c(=O)[nH]c21
[8]
  IC50: 2660 nM
[15]
  inhibition: 42.9%

## COc1cc2ccn(-c3cccc(-c4nncn4C(C)C)n3)c(=O)c2cc1-n1cnc(C2CC2)c1
[8]
  IC50: 1.65 nM

## CC(C)n1cnnc1-c1cccc(N2Cc3cc(-n4cnc(C5CC5)c4)ccc3C2=O)n1
[8]
  IC50: 1.78 nM

## CC(C)n1cnnc1-c1cccc(N2CCc3ccc(-n4cnc(C5CC5)c4)cc3C2=O)n1
[8]
  IC50: 1.83 nM

## COc1cc2nccc(Oc3ccc(NC(=O)c4cn(C(C)C)c5c(c4=O)CCC=C5)cc3)c2cc1OC
[16]
  IC50: 6 nM
[17]
  survival: 1.09%

## C=C(C)[C@@H]1CC[C@]2(C(=O)O)CC[C@]3(C)[C@H](C[C@@H](O)[C@@H]4[C@@]5(C)C(CC(=O)O)OC(C)(C)C5CC[C@]43C)[C@@H]12 (some centres not stated)
[4]
  IC50: 449 nM

## CC(C)n1cnnc1-c1cccc(NC(=O)c2cc3c(cc2F)CCCc2nc(C4CC4)cn2-3)n1
[8]
  IC50: < 10 nM

## Cc1cc(F)c(C(=O)Nc2cccc(-c3nnc4n3CCCC4)n2)cc1-n1cnc(C2CC2)n1
[14]
  IC50: ≤ 100 nM
